Reference: patent publication US6048896A, “4-phenyl-4-oxo-2-butenoic acid derivatives with kynurenine-3-hydroxylase inhibiting activity” (Pharmacia & Upjohn S.p.A., priority 1995, dated 2000)

Assays:
kynurenine-3-hydroxylase [1] = biological target: T1, kynurenine-3-hydroxylase (Rattus norvegicus, UniProt O88867); assay: Kynurenine-3-hydroxylase Assay in the Rat Liver; format: biochemical; design: Rat liver mitochondrial extract was used as enzymatic preparation for this assay; from tissue; host or cells: rat liver mitochondrial extract; details: rat liver mitochondrial extract, 0.025 mM L-kynurenine, 37° C., 30 min, pH 8.1; read-out: Enzyme Inhibition (Liver) IC50
Procedure: Kynurenine-3-hydroxylase Assay in the Rat Liver
The assay for kynurenine 3-hydroxylase was based on the enzymatic synthesis of tritiated water during the hydroxylation reaction. Radiolabeled water was quantified following selective adsorption of the isotopic substrate and its metabolite with activated charcoal.
Rat liver mitochondrial extract was used as enzymatic preparation for this assay.
The assay for kynurenine 3-hydroxylase activity was carried out at 37° C. for a time of 30 min. The reaction mixture of a total volume of […] was constituted of […] of suspended extract, 100 mM Tris/Cl^- buffer pH 8.1, 10 mM EDTA, 100 mM KCl, 0.8 mM NADPH, 0.025 mM L-kynurenine, […] L-(3,5-^3 H)Kynurenine (10 Ci/mmol) and […] of different concentration of inhibitor solutions. After the incubation the reaction was terminated by the addition of 1 mL of 7.5% (w/v) activated charcoal, vortexed and centrifugated for 7 min.
A […] aliquot of supernatant was counted by scintillation spectroscopy in 5 ml of liquid scintillation.

kynurenine-3-hydroxylase [2] = biological target: T1, kynurenine-3-hydroxylase; assay: Kynurenine-3-hydroxylase Assay in the Rat Brain; format: biochemical; design: from tissue; details: rat brain homogenate, 50 μM L-kynurenine, 60 min incubation, pH 7.5; read-out: Enzyme Inhibition (Brain) IC50
Procedure: Kynurenine-3-hydroxylase Assay in the Rat Brain
Brain was homogenized in ice-cold 0.32 M sucrose and centrifuged at 12000×g for 30 min at 4° C. The pellet was washed three times with 0.32 M sucrose by centrifugation and suspended in 0.14 M KCl in 20 mM K-phosphate buffer at pH 7 (1 g tissue in 2 ml buffer).
The reaction mixture contained: 75 μl of suspended homogenate; 100 μl of substrate solution containing 50 mM K-phosphate buffer pH 7.5, 2 mM MgCl2, 0.4 mM NADPH, 50 μM L-kynurenine (final concentration), and 25 μl of different concentrations of inhibitor solutions. The reaction was stopped by addition of 200 μl of 1 M HClO4 after 60 min incubation. L-3-hydroxykynurenine formed was quantified by HPLC with coulometric detection at a working voltage of +0.2 V. The column was a 10 cm C18 reversed phase (3 μm. The mobile phase consisted of 950 ml distilled water, 20 ml acetonitrile, 9 ml triethylamine, 5.9 ml phosphoric acid, 100 mg sodium EDTA and 1.5 g heptanesulfonic acid. The flow rate was 1 ml/min.

[3] = test system: N-methyl-D-aspartate (NMDA) receptor; details: cited from earlier work
CNS = details: cited from earlier work
neuronal cell cultures = details: relatively low concentrations, prolonged period of time or in combination with glutamate; cited from earlier work
[4] = test system: ionotropic excitatory aminoacid receptors; details: preferentially at glycine co-agonist site of the NMDA receptor; cited from earlier work

T1 sequence (O88867 whole entry): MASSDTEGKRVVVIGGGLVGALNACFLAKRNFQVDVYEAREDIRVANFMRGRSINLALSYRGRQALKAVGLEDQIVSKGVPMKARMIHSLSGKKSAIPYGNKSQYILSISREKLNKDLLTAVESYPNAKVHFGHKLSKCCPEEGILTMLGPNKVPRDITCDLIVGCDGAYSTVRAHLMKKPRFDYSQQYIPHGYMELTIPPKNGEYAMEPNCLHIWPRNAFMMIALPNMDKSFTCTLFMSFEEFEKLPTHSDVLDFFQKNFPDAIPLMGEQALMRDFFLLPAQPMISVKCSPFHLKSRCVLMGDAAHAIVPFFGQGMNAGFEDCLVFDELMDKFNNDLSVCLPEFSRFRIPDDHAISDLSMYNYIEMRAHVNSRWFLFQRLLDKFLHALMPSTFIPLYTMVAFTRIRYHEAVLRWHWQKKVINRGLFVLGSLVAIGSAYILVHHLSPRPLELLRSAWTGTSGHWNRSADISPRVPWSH

## CC(=CC(=O)O)C(=O)c1ccc(Cl)c(Cl)c1 [PNU 161213, 3-methyl-4-(3',4'-dichlorophenyl)-4-oxo-2-butenoic acid]
kynurenine-3-hydroxylase [1]
  IC50: 26.2 µM

## O=C(O)/C(O)=C\C(=O)c1ccc(Cl)c(Cl)c1 [PNU 158776, (E)-2-hydroxy-4-(3',4'-dichlorophenyl)-4-oxo-2-butenoic acid]
kynurenine-3-hydroxylase [2]
  IC50: 0.3 µM
kynurenine-3-hydroxylase [1]
  IC50: 1.8 µM

## O=C(O)/C=C/C(=O)c1ccc(F)c(F)c1 [PNU 157961, (E)-4-(3',4'-difluorophenyl)-4-oxo-2-butenoic acid]
kynurenine-3-hydroxylase [2]
  IC50: 1.1 µM
kynurenine-3-hydroxylase [1]
  IC50: 21.1 µM

## O=C(O)/C=C/C(=O)c1cccc(Cl)c1 [PNU 158390, (E)-4-(3'-chlorophenyl)-4-oxo-2-butenoic acid]
kynurenine-3-hydroxylase [2]
  IC50: 20.4 µM
kynurenine-3-hydroxylase [1]
  IC50: 21.9 µM

## COC(=O)/C(O)=C\C(=O)c1ccc(Cl)c(Cl)c1 [PNU 158775, Methyl-(E)-2-hydroxy-4-(3',4'-dichlorophenyl)-4-oxo-2-butenoate]
kynurenine-3-hydroxylase [2]
  IC50: 0.95 µM
kynurenine-3-hydroxylase [1]
  IC50: 6.9 µM

## O=C(O)/C=C/C(=O)c1ccc(Cl)c(Cl)c1 [PNU 157694, (E)-4-(3',4'-dichlorophenyl)-4-oxo-2-butenoic acid]
kynurenine-3-hydroxylase [2]
  IC50: 0.9 µM
kynurenine-3-hydroxylase [1]
  IC50: 10.4 µM

## O=C(O)/C(O)=C\C(=O)c1ccc(F)c(F)c1 [PNU 161219, (E)-2-hydroxy-4-(3',4'-difluorophenyl)-4-oxo-2-butenoic acid]
kynurenine-3-hydroxylase [2]
  IC50: 0.44 µM
kynurenine-3-hydroxylase [1]
  IC50: 1.2 µM

## O=C(O)C=C(Cc1ccccc1)C(=O)c1ccc(Cl)c(Cl)c1 [PNU 167535, 3-benzyl-4-(3',4'-dichlorophenyl)-4-oxo-2-butenoic acid]
kynurenine-3-hydroxylase [1]
  IC50: 12.3 µM

## O=C(O)c1cccnc1C(=O)O [QUIN, quinolinic acid]
[3]
  activity at NMDA receptor: highly selective agonist
CNS; in vivo
  in vivo convulsions and lesions: produce convulsions and axon sparing lesions
CNS
  effect when injected in the CNS: neurotoxin
Neuronal cell cultures
  neurotoxicity in neuronal cell cultures: neurotoxic

## O=C(O)/C(O)=C\C(=O)c1ccc(Cl)cc1 [PNU 166909, (E)-2-hydroxy-4-(4'-chlorophenyl)-4-oxo-2-butenoic acid]
kynurenine-3-hydroxylase [1]
  IC50: 8.9 µM

## C/C(=C\C(=O)c1ccc(Cl)c(Cl)c1)C(=O)O [PNU 158785, (E)-2-methyl-4-(3',4'-dichlorophenyl)-4-oxo-2-butenoic acid]
kynurenine-3-hydroxylase [2]
  IC50: 3.4 µM
kynurenine-3-hydroxylase [1]
  IC50: 23.5 µM

## O=C(O)/C(O)=C\C(=O)c1cccc(F)c1 [PNU 161217, (E)-2-hydroxy-4-(3'-fluorophenyl)-4-oxo-2-butenoic acid]
kynurenine-3-hydroxylase [2]
  IC50: 0.97 µM
kynurenine-3-hydroxylase [1]
  IC50: 2.8 µM

## O=C(O)/C(O)=C\C(=O)c1cccc(Cl)c1 [PNU 161216, (E)-2-hydroxy-4-(3'-chlorophenyl)-4-oxo-2-butenoic acid]
kynurenine-3-hydroxylase [2]
  IC50: 6.9 µM
kynurenine-3-hydroxylase [1]
  IC50: 1.2 µM

## O=C(O)/C=C/C(=O)c1cccc([N+](=O)[O-])c1 [PNU 158389, (E)-4-(3'-nitrophenyl)-4-oxo-2-butenoic acid]
kynurenine-3-hydroxylase [2]
  IC50: 16.6 µM
kynurenine-3-hydroxylase [1]
  IC50: 30.4 µM

## O=C(O)/C=C/C(=O)c1cccc(F)c1 [PNU 158388, (E)-4-(3'-fluorophenyl)-4-oxo-2-butenoic acid]
kynurenine-3-hydroxylase [2]
  IC50: 21.8 µM
kynurenine-3-hydroxylase [1]
  IC50: 38.6 µM

## CCOC(=O)/C(O)=C\C(=O)c1ccc(Cl)c(Cl)c1 [PNU 161215, Ethyl-(E)-2-hydroxy-4-(3',4'-dichlorophenyl)-4-oxo-2-butenoate]
kynurenine-3-hydroxylase [2]
  IC50: 2.01 µM
kynurenine-3-hydroxylase [1]
  IC50: 1.9 µM

## O=C(O)c1cc(=O)c2ccccc2[nH]1 [KYNA, kynurenic acid]
[4]
  activity at ionotropic excitatory aminoacid receptors: broad spectrum antagonist
CNS; co-injected with QUIN
  prevention of excitotoxic neuronal damage evoked by QUIN: able to prevent the excitotoxic neuronal damage
CNS
  effect when injected in the CNS: neuroprotective agent
CNS; several animal models
  anticonvulsant and neuroprotective properties: anticonvulsant and neuroprotective properties
